# Counter-ions that a name gives are not always drawn.
# Key:
# [1] = Storage stability of hydrochloride salts in a lyophilized composition containing sucrose and glycine (purity by HPLC); format: physicochemical; conditions: for Purity (HPLC area percent) / Δ (change in percent purity from time = 0): composition containing sucrose and glycine; for decrease in purity: formulated with sucrose and glycine
# Procedure: (§1) All solvents were HPLC grade and were purchased from Honeywell Burdick & Jackson (Muskegon, Mich. 49442). Phosphoric acid (85% w/w) and sodium dihydrogen phosphate were HPLC grade and were purchased from Fluka (Sigma-Aldrich, St. Louis, Mo. 63103). All reagents were used without further purification.
# (§2) Test samples were filtered through a 0.2 μm polyvinylidene fluoride (PVDF) filter before analysis and the first 1 mL was discarded.
# (§3) Test sample purity was determined based on the integrated peak area (area-under-the-curve or AUC) for the compound as a percentage of all integrated peaks. The concentration (assay value) of the compound in a test sample was determined by comparison with a reference standard.
# (§4) One rack was stored protected from light in a drawer at room temperature and the other rack was stored in a refrigerator at 2 to 8° C. A representative vial of each type of stability sample was analyzed by HPLC after storage for 1, 3, 6 and 12 months to determine purity.
# [2] = Storage stability of lyophilized hydrochloride salts (purity by HPLC); format: physicochemical
# Procedure: as §1, §2, §3, §4
# [3] = refrigerated temperature (2 to 8° C.), 1 month, monohydrochloride
# [4] = refrigerated temperature (2 to 8° C.), 3 months, monohydrochloride
# [5] = refrigerated temperature (2 to 8° C.), 6 months, monohydrochloride
# [6] = refrigerated temperature (2 to 8° C.), 12 months, monohydrochloride
# [7] = room temperature, 1 month, monohydrochloride
# [8] = room temperature, 3 months, monohydrochloride
# [9] = room temperature, 6 months, monohydrochloride
# [10] = room temperature, 12 months, monohydrochloride
# [11] = stored at 2 to 8° C. for 12 months, listed as monohydrochloride salt, monohydrochloride
# [12] = stored at room temperature for 12 months, listed as monohydrochloride salt, monohydrochloride
# [13] = room temperature, 1 month, listed as Mono HCl, monohydrochloride
# [14] = room temperature, 3 months, listed as Mono HCl, monohydrochloride
# [15] = room temperature, 6 months, listed as Mono HCl, monohydrochloride
# [16] = room temperature, 12 months, listed as Mono HCl, monohydrochloride
# [17] = refrigerated temperature (2 to 8° C.), 1 month, Trihydrochloride
# [18] = refrigerated temperature (2 to 8° C.), 3 months, Trihydrochloride
# [19] = refrigerated temperature (2 to 8° C.), 6 months, Trihydrochloride
# [20] = refrigerated temperature (2 to 8° C.), 12 months, Trihydrochloride
# [21] = refrigerated temperature (2 to 8° C.), time 0 months, Trihydrochloride
# [22] = room temperature, 1 month, Trihydrochloride
# [23] = room temperature, 3 months, Trihydrochloride
# [24] = room temperature, 6 months, Trihydrochloride
# [25] = room temperature, 12 months, Trihydrochloride
# [26] = room temperature, time 0 months, Trihydrochloride
# [27] = stored at 2 to 8° C. for 12 months, listed as trihydrochloride salt, Trihydrochloride
smiles,measurement,setting,value
"CN[C@H](CC(C)C)C(=O)N[C@H]1C(=O)N[C@@H](CC(N)=O)C(=O)N[C@H]2C(=O)N[C@H]3C(=O)N[C@H](C(=O)N[C@H](C(=O)NCCCO/N=C(\C(=O)N[C@@H]4C(=O)N5C(C(=O)[O-])=C(C[n+]6ccccc6)CS[C@H]45)c4nc(N)sc4Cl)c4cc(O)cc(O)c4-c4cc3ccc4O)[C@H](O)c3ccc(c(Cl)c3)Oc3cc2cc(c3O[C@@H]2O[C@H](CO)[C@@H](O)[C@H](O)[C@H]2O[C@H]2C[C@](C)(N)[C@H](O)[C@H](C)O2)Oc2ccc(cc2Cl)[C@H]1O [Monohydrochloride, 26-[[[3-[[(Z)-[1-(2-amino-5-chloro-4-thiazolyl)-2-[[(6R,7R)-2-carboxy-8-oxo-3-(pyridiniomethyl)-5-thia-1-azabicyclo[4.2.0]oct-2-en-7-yl]amino]-2-oxoethylidene]amino]oxy]propyl]amino]carbonyl]-26-decarboxyvancomycin monohydrochloride]",Purity (HPLC area percent),[1]; [3],90.7%
same,Δ (change in percent purity from time = 0),[1]; [3],0.3%
same,Purity (HPLC area percent),[1]; [4],88.9%
same,Δ (change in percent purity from time = 0),[1]; [4],−1.5%
same,Purity (HPLC area percent),[1]; [5],91.7%
same,Δ (change in percent purity from time = 0),[1]; [5],1.3%
same,Purity (HPLC area percent),[1]; [6],88.5%
same,Δ (change in percent purity from time = 0),[1]; [6],−1.9%
same,Purity (HPLC area percent),[1]; [7],89.0%
same,Δ (change in percent purity from time = 0),[1]; [7],−1.4%
same,Δ (change in percent purity from time = 0),[1]; [8],−3.5%
same,Δ (change in percent purity from time = 0),[1]; [9],−2.5%
same,Δ (change in percent purity from time = 0),[1]; [10],−8.9%
same,decrease in purity,[1]; [11],1.9%
same,decrease in purity,[1]; [12],8.9%
same,storage stability when formulated with sucrose and glycine,"[1]; stored at room temperature for 12 months, compared to the salt alone",more stable
same,Purity (HPLC area percent),[2]; [3],90.0%
same,Δ (change in percent purity from time = 0),[2]; [3],−0.4%
same,Purity (HPLC area percent),[2]; [4],90.2%
same,Δ (change in percent purity from time = 0),[2]; [4],−0.2%
same,Δ (change in percent purity from time = 0),[2]; [5],0.0%
same,Purity (HPLC area percent),[2]; [6],87.4%
same,Δ (change in percent purity from time = 0),[2]; [6],−3.0%
same,Purity (HPLC area percent),[2]; [13],89.3%
same,Δ (change in percent purity from time = 0),[2]; [13],−1.1%
same,Purity (HPLC area percent),[2]; [7],89.3%
same,Δ (change in percent purity from time = 0),[2]; [7],−1.1%
same,Purity (HPLC area percent),[2]; [14],82.0%
same,Δ (change in percent purity from time = 0),[2]; [14],−8.4%
same,Purity (HPLC area percent),[2]; [8],82.0%
same,Δ (change in percent purity from time = 0),[2]; [8],−8.4%
same,Purity (HPLC area percent),[2]; [15],79.9%
same,Δ (change in percent purity from time = 0),[2]; [15],−10.5%
same,Purity (HPLC area percent),[2]; [9],79.9%
same,Δ (change in percent purity from time = 0),[2]; [9],−10.5%
same,Purity (HPLC area percent),[2]; [16],67.0%
same,Δ (change in percent purity from time = 0),[2]; [16],−23.4%
same,Purity (HPLC area percent),[2]; [10],67.0%
same,Δ (change in percent purity from time = 0),[2]; [10],−23.4%
same,decrease in purity,[2]; [11],3.0%
same,decrease in purity,[2]; [12],23.4%
same,storage stability compared to the trihydrochloride salt,[2]; stored for 12 months at either room temperature or 2 to 8° C.,significantly more stable than the trihydrochloride salt
"CN[C@H](CC(C)C)C(=O)NC1C(=O)N[C@@H](CC(N)=O)C(=O)N[C@H]2C(=O)N[C@H]3C(=O)N[C@H](C(=O)N[C@H](C(=O)NCCCO/N=C(\C(=O)N[C@@H]4C(=O)N5C(C(=O)[O-])=C(C[n+]6ccccc6)CS[C@H]45)c4nc(N)sc4Cl)c4cc(O)cc(O)c4-c4cc3ccc4O)[C@H](O)c3ccc(c(Cl)c3)Oc3cc2cc(c3O[C@@H]2O[C@H](CO)[C@@H](O)[C@H](O)[C@H]2O[C@H]2C[C@](C)(N)[C@H](O)[C@H](C)O2)Oc2ccc(cc2Cl)[C@H]1O (stereo partly drawn) [Trihydrochloride, 26-[[[3-[[(Z)-[1-(2-Amino-5-chloro-4-thiazolyl)-2-[[(6R,7R)-2-carboxy-8-oxo-3-(pyridiniomethyl)-5-thia-1-azabicyclo[4.2.0]oct-2-en-7-yl]amino]-2-oxoethylidene]amino]oxy]propyl]amino]carbonyl]-26-decarboxyvancomycin Trihydrochloride, reference compound]",Purity (HPLC area percent),[1]; [17],91.5%
same,Δ (change in percent purity from time = 0),[1]; [17],0.2%
same,Δ (change in percent purity from time = 0),[1]; [18],−0.5%
same,Purity (HPLC area percent),[1]; [19],92.8%
same,Δ (change in percent purity from time = 0),[1]; [19],1.5%
same,Purity (HPLC area percent),[1]; [20],90.1%
same,Δ (change in percent purity from time = 0),[1]; [20],−1.2%
same,Purity (HPLC area percent),[1]; [21],91.3%
same,Purity (HPLC area percent),[1]; [22],89.2%
same,Δ (change in percent purity from time = 0),[1]; [22],−2.1%
same,Purity (HPLC area percent),[1]; [23],84.4%
same,Δ (change in percent purity from time = 0),[1]; [23],−6.9%
same,Purity (HPLC area percent),[1]; [24],82.5%
same,Δ (change in percent purity from time = 0),[1]; [24],−8.8%
same,Purity (HPLC area percent),[1]; [25],65.0%
same,Δ (change in percent purity from time = 0),[1]; [25],−26.3%
same,Purity (HPLC area percent),[1]; [26],91.3%
same,decrease in purity,[1]; [27],1.2%
same,decrease in purity,"[1]; stored at room temperature for 12 months, listed as trihydrochloride salt, Trihydrochloride",26.3%
same,Purity (HPLC area percent),[2]; [17],84.0%
same,Δ (change in percent purity from time = 0),[2]; [17],−0.5%
same,Purity (HPLC area percent),[2]; [18],80.7%
same,Δ (change in percent purity from time = 0),[2]; [18],−3.8%
same,Purity (HPLC area percent),[2]; [19],79.4%
same,Δ (change in percent purity from time = 0),[2]; [19],−5.1%
same,Purity (HPLC area percent),[2]; [20],76.0%
same,Δ (change in percent purity from time = 0),[2]; [20],−8.6%
same,Purity (HPLC area percent),[2]; [21],84.5%
same,Purity (HPLC area percent),[2]; [22],74.8%
same,Δ (change in percent purity from time = 0),[2]; [22],−9.7%
same,Purity (HPLC area percent),[2]; [23],69.5%
same,Δ (change in percent purity from time = 0),[2]; [23],−15.0%
same,Purity (HPLC area percent),[2]; [24],56.5%
same,Δ (change in percent purity from time = 0),[2]; [24],−28.0%
same,Purity (HPLC area percent),[2]; [25],50.4%
same,Δ (change in percent purity from time = 0),[2]; [25],−34.2%
same,Purity (HPLC area percent),[2]; [26],84.5%
same,decrease in purity,[2]; [27],8.6%
same,decomposition on storage,[2]; stored at room temperature or at refrigerated temperature (about 2 to about 8° C.),decompose significantly

# — US9161990B2, “Hydrochloride salts of a glycopeptide-cephalosporin antbiotic compond” (THERAVANCE BIOPHARMA ANTIBIOTICS IP, LLC, priority 2013, dated 2015)
